Tested on: 328373-195-R-J1-PDC complex spheroids, viability % test/control
Experiment: Anticancer human tumor 328373-195-R-J1-PDC patient-derived head and neck squamous carcinoma cell line growth inhibition [CLK]
Details: for IC50: curve of first compound; for viability, T/C: stronger effect = lower value; active means viability on the fitted dose curve at most 10% of control; inactive means the rest
Summary of the method: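 Multi-cell-type spheroids combined patient-derived tumor cells with HUVEC endothelial cells and human mesenchymal stem cells. Paired agents were dosed in half-log steps down from about clinical Cmax, or from 10 microM where Cmax was unknown.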
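Further: spheroids exposed to the agents for 7 days.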

COc1cccc2c1C(=O)c1c(O)c3c(c(O)c1C2=O)CC(O)(C(=O)CO)CC3OC1CC(N)C(O)C(C)O1 (configuration not stated) + CN1CCN(c2cc(C(=O)Nc3cc4cc(-c5cnn(C)c5)ccc4cn3)ccn2)CC1
inactive: viability, T/C (second compound 0.0316 µM, first compound 0.0316 µM) 13.4% | viability, T/C (second compound 0.1 µM, first compound 0.0316 µM) 14.7% | viability, T/C (second compound 0.316 µM, first compound 0.0316 µM) 13.2%
active: viability, T/C (second compound 0.0316 µM, first compound 0.1 µM) 8.66% | viability, T/C (second compound 0.0316 µM, first compound 0.316 µM) 2.1% | viability, T/C (second compound 0.0316 µM, first compound 1 µM) 0.22% | viability, T/C (second compound 0.0316 µM, first compound 3.16 µM) 2.55% | viability, T/C (second compound 0.0316 µM, first compound 10 µM) 1.06% | viability, T/C (second compound 0.1 µM, first compound 0.1 µM) 5.57% | viability, T/C (second compound 0.1 µM, first compound 0.316 µM) 0.44% | viability, T/C (second compound 0.1 µM, first compound 1 µM) 0.19% | viability, T/C (second compound 0.1 µM, first compound 3.16 µM) 0.12% | viability, T/C (second compound 0.1 µM, first compound 10 µM) 1.87% | viability, T/C (second compound 0.316 µM, first compound 0.1 µM) 2.4% | viability, T/C (second compound 0.316 µM, first compound 0.316 µM) 3.38% | viability, T/C (second compound 0.316 µM, first compound 1 µM) 1.11% | viability, T/C (second compound 0.316 µM, first compound 3.16 µM) 0.1% | viability, T/C (second compound 0.316 µM, first compound 10 µM) 2% | viability, T/C (second compound 1 µM, first compound 0.0316 µM) 1.05% | viability, T/C (second compound 1 µM, first compound 0.1 µM) 2.51% | viability, T/C (second compound 1 µM, first compound 0.316 µM) 4.63% | viability, T/C (second compound 1 µM, first compound 1 µM) 0.09% | viability, T/C (second compound 1 µM, first compound 3.16 µM) 1.51% | viability, T/C (second compound 1 µM, first compound 10 µM) 0.08% | viability, T/C (second compound 3.16 µM, first compound 0.0316 µM) 0.07% | viability, T/C (second compound 3.16 µM, first compound 0.1 µM) 4.11% | viability, T/C (second compound 3.16 µM, first compound 0.316 µM) 0.93% | viability, T/C (second compound 3.16 µM, first compound 1 µM) 0.07% | viability, T/C (second compound 3.16 µM, first compound 3.16 µM) 1.76% | viability, T/C (second compound 3.16 µM, first compound 10 µM) 0.11% | viability, T/C (second compound 10 µM, first compound 0.0316 µM) 0.1% | viability, T/C (second compound 10 µM, first compound 0.1 µM) 0.75% | viability, T/C (second compound 10 µM, first compound 0.316 µM) 0.41% | viability, T/C (second compound 10 µM, first compound 1 µM) 0.11% | viability, T/C (second compound 10 µM, first compound 3.16 µM) 2.76% | viability, T/C (second compound 10 µM, first compound 10 µM) 0.61%
< 31.6 nM: IC50 (second compound 0.0316 µM) | IC50 (second compound 0.1 µM) | IC50 (second compound 0.316 µM) | IC50 (second compound 1 µM) | IC50 (second compound 3.16 µM) | IC50 (second compound 10 µM)
